System: TLR7
Assay: TLR-induced cytokine release in human peripheral blood mononuclear cells (PBMC), TNF-alpha by ELISA
Assay type: cell-based
Conditions: human PBMC incubated 18 hours with test substance in presence of TLR7 ligand; TNF-alpha in supernatant by ELISA; read-out: EC50 (TNF-α TLR7)
Procedure: TLR-Induced Cytokine Release in Human “Peripheral Blood Mononuclear Cells” (PBMC)
PBMCs isolated from human whole blood are stimulated using a TLR ligand.
The cytokine determination is carried out by means of ELISA kits; a proliferation/cell metabolism determination is carried out using Alamar Blue.
For the cell preparation, about 200 ml of blood are treated with an anticoagulant (e.g. citrate Monovettes). Per Leucosep tube, 15 ml of Histopaque (room temperature, RT) are poured in and forced downwards through the inserted frit by brief initial centrifugation (one minute at 1000×g, RT). 20 ml of blood are added to the tubes prepared in this way and centrifuged at 800×g for 15 minutes (RT). After centrifugation, the following layering results from the top to the bottom:
plasma-PBMC-Histopaque-filter disc-Histopaque-erythrocytes and granulocytes. The supernatant plasma is aspirated. The PBMC are transferred together with the underlying Histopaque to a new 50 ml tube, the contents of two Leucosep tubes always being added to one 50 ml tube. The 50 ml tubes are then filled to 50 ml with PBS. This cell suspension is centrifuged at 300×g (RT) for 10 minutes.
The liquid supernatant is tipped off and the cell pellet is resuspended with a little PBS and subsequently filled to 50 ml with PBS. This washing step is repeated twice. The resulting pellet is taken up in a defined volume of medium (with additives). For the testing of the substances, PBMC are incubated for 18 hours with titrated concentrations of the test substances, e.g. in the presence or absence of TLR7 or TLR9 ligands. On the next day, the supernatants are investigated for the content of TNF-alpha or other cyto- or chemokines by means of specific ELISA. The metabolic activity of the treated cells is determined with the aid of Alamar Blue.

| SMILES | EC50 |
| --- | --- |
| NC(=O)c1ccccc1NC(=O)c1csc(-c2cccnc2)n1 [Example 1.1, N-[2-(Aminocarbonyl)phenyl]-2-(3-pyridinyl)-4-thiazolecarboxamide] | 900 nM |
| Cn1ncc(NC(=O)c2csc(-c3ccncc3)n2)c1C(N)=O [Example 1.2, N-[5-(Aminocarbonyl)-1-methyl-1H-pyrazol-4-yl]-2-(4-pyridinyl)-4-thiazolecarboxamide] | 2400 nM |
| NC(=O)c1ccccc1NC(=O)c1csc(-c2ccncc2)n1 [Example 1.3, N-[2-(Aminocarbonyl)phenyl]-2-(4-pyridinyl)-4-thiazolecarboxamide] | 1300 nM |
| Cc1ccc(NC(=O)c2csc(-c3cccnc3)n2)c(C(N)=O)c1 [Example 1.4, N-[2-(Aminocarbonyl)-4-methylphenyl]-2-(3-pyridinyl)-4-thiazolecarboxamide] | 490 nM |
| Cc1ccc(C(N)=O)c(NC(=O)c2csc(-c3cccnc3)n2)c1 [Example 1.5, N-[2-(Aminocarbonyl)-5-methylphenyl]-2-(3-pyridinyl)-4-thiazolecarboxamide] | 4100 nM |
| NC(=O)c1cc(Cl)ccc1NC(=O)c1csc(-c2cccnc2)n1 [Example 1.6, N-[2-(Aminocarbonyl)-4-chlorophenyl]-2-(3-pyridinyl)-4-thiazolecarboxamide] | 30000 nM |
| NC(=O)c1ncccc1NC(=O)c1csc(-c2cccnc2)n1 [Example 1.7, 3-[(2-Pyridin-3-ylthiazole-4-carbonyl)amino]pyridine-2-carboxamide] | 1800 nM |
| Cc1ccc(C(N)=O)c(NC(=O)c2csc(-c3ccncc3)n2)c1 [Example 1.8, N-[2-(Aminocarbonyl)-5-methylphenyl]-(4-pyridinyl)-4-thiazolecarboxamide] | 1100 nM |
| Cc1ccc(C(N)=O)c(NC(=O)c2csc(-c3cnccc3C(F)(F)F)n2)c1 [Example 1.11, N-[2-(Aminocarbonyl)-5-methylphenyl]-2-[4-(trifluoromethyl)-3-pyridinyl]-4-thiazolecarboxamide] | 30000 nM |
| CC(C)(C)c1cc(NC(=O)c2csc(-c3cccnc3)n2)c(C(N)=O)s1 [Example 1.17, N-[2-(Aminocarbonyl)-5-(1,1-dimethylethyl)-3-thienyl]-2-(3-pyridinyl)-4-thiazolecarboxamide] | 2600 nM |
| NC(=O)c1cc(F)ccc1NC(=O)c1csc(-c2cccnc2)n1 [Example 1.18, N-[2-(Aminocarbonyl)-4-fluorophenyl]-2-(3-pyridinyl)-4-thiazolecarboxamide] | 1900 nM |
| NC(=O)c1ncccc1NC(=O)c1csc(-c2ccncc2)n1 [Example 1.21, 3-[(2-Pyridin-4-ylthiazole-4-carbonyl)amino]pyridine-2-carboxamide] | 5200 nM |
| NC(=O)c1ccncc1NC(=O)c1csc(-c2ccncc2)n1 [Example 1.22, 3-[(2-Pyridin-4-ylthiazole-4-carbonyl)amino]isonicotinamide] | 7000 nM |
| Cc1ccc(C(N)=O)c(NC(=O)c2csc(-c3ccc(N)nc3)n2)c1 [Example 2.4, N-[2-(Aminocarbonyl)-5-methylphenyl]-2-(6-aminopyridin-3-yl)thiazole-4-carboxamide] | 1300 nM |
